Experiment: Release (dissolution) profile of capsules, USP Apparatus 2 (paddle)
Format: physicochemical
Source text: USP Apparatus 2 (Paddle Apparatus) is described, for example, in the United States Pharmacopeial Convention, Feb. 1, 2012, Chapter <711> (“Dissolution”), incorporated by reference herein in its entirety. See http://www.usp.org/sites/default/files/usp_pdf/EN/USPNF/revisions/m99470-gc_711.pdf. The assembly from Apparatus 1 is used, except that a paddle formed from a blade and a shaft is used as the stirring element. The shaft is positioned so that its axis is not more than 2 mm from the vertical axis of the vessel at any point and rotates smoothly without significant wobble that could affect the results. The vertical center line of the blade passes through the axis of the shaft so that the bottom of the blade is flush with the bottom of the shaft. A distance of 25±2 mm between the bottom of the blade and the inside bottom of the vessel is maintained during the test. The metallic or suitably inert, rigid blade and shaft comprise a single entity. A suitable two-part detachable design may be used provided the assembly remains firmly engaged during the test. The paddle blade and shaft may be coated with a suitable coating so as to make them inert. The dosage unit is allowed to sink to the bottom of the vessel before rotation of the blade is started. A small, loose piece of nonreactive material, such as not more than a few turns of wire helix, may be attached to dosage units that would otherwise float. Other validated sinker devices may be used.
Unless otherwise specified, the release profiles for capsules were measured using USP Apparatus 2 (paddle).
All release profiles disclosed in Tables 3c-3p were measured with USP Apparatus 2 (paddle) at 50 rpm in 500 mL of aqueous sodium phosphate at a concentration of 0.05 M (pH=6.8). The values in a given table relate to capsules obtained from the same batch. Values shown represent mean values over a number of dissolution tests (“n” in each table) in each case.

## O=C(O)COC[C@H]1CC[C@H](COC(=O)N(c2ccccc2)c2ccc(Cl)cc2)CC1 [Compound 1, 2-(((1r,4r)-4-(((4-chlorophenyl)(phenyl)carbamoyloxy)methyl)cyclohexyl)methoxy)acetic acid]
Table 3k: size 4 capsule, 0.03 mg Compound 1, Poloxamer 188:food grade GMS 50:50, 360 min
  mean value (n = 6) of % of Compound 1 released: 91.4%
Table 3k: size 4 capsule, 0.03 mg Compound 1, Poloxamer 188:food grade GMS 50:50, 480 min
  mean value (n = 6) of % of Compound 1 released: 98.3%
Table 3l: size 4 capsule, 0.5 mg Compound 1, Poloxamer 188:food grade GMS 50:50, 30 min
  mean value (n = 4) of % of Compound 1 released: 9.9%
Table 3l: size 4 capsule, 0.5 mg Compound 1, Poloxamer 188:food grade GMS 50:50, 60 min
  mean value (n = 4) of % of Compound 1 released: 22.2%
Table 3l: size 4 capsule, 0.5 mg Compound 1, Poloxamer 188:food grade GMS 50:50, 120 min
  mean value (n = 4) of % of Compound 1 released: 42.9%
Table 3l: size 4 capsule, 0.5 mg Compound 1, Poloxamer 188:food grade GMS 50:50, 180 min
  mean value (n = 4) of % of Compound 1 released: 61.5%
Table 3l: size 4 capsule, 0.5 mg Compound 1, Poloxamer 188:food grade GMS 50:50, 240 min
  mean value (n = 4) of % of Compound 1 released: 76.9%
Table 3l: size 4 capsule, 0.5 mg Compound 1, Poloxamer 188:food grade GMS 50:50, 360 min
  mean value (n = 4) of % of Compound 1 released: 92.2%
Table 3l: size 4 capsule, 0.5 mg Compound 1, Poloxamer 188:food grade GMS 50:50, 480 min
  mean value (n = 4) of % of Compound 1 released: 96.7%
Table 3m: size 4 capsule, 0.03 mg Compound 1, Poloxamer 188:food grade GMS 30:70, 60 min
  mean value (n = 6) of % of Compound 1 released: 15.3%
Table 3m: size 4 capsule, 0.03 mg Compound 1, Poloxamer 188:food grade GMS 30:70, 120 min
  mean value (n = 6) of % of Compound 1 released: 27.4%
Table 3m: size 4 capsule, 0.03 mg Compound 1, Poloxamer 188:food grade GMS 30:70, 180 min
  mean value (n = 6) of % of Compound 1 released: 38.4%
Table 3m: size 4 capsule, 0.03 mg Compound 1, Poloxamer 188:food grade GMS 30:70, 240 min
  mean value (n = 6) of % of Compound 1 released: 49.0%
Table 3m: size 4 capsule, 0.03 mg Compound 1, Poloxamer 188:food grade GMS 30:70, 360 min
  mean value (n = 6) of % of Compound 1 released: 70.1%
Table 3m: size 4 capsule, 0.03 mg Compound 1, Poloxamer 188:food grade GMS 30:70, 480 min
  mean value (n = 6) of % of Compound 1 released: 85.9%
Table 3m: size 4 capsule, 0.03 mg Compound 1, Poloxamer 188:food grade GMS 30:70, 600 min
  mean value (n = 6) of % of Compound 1 released: 93.5%
Table 3m: size 4 capsule, 0.03 mg Compound 1, Poloxamer 188:food grade GMS 30:70, 720 min
  mean value (n = 6) of % of Compound 1 released: 97.6%
Table 3m: size 4 capsule, 0.03 mg Compound 1, Poloxamer 188:food grade GMS 30:70, 840 min
  mean value (n = 6) of % of Compound 1 released: 99.0%
Table 3n: size 4 capsule, 0.5 mg Compound 1, Poloxamer 188:food grade GMS 30:70, 30 min
  mean value (n = 4) of % of Compound 1 released: 7.9%
Table 3n: size 4 capsule, 0.5 mg Compound 1, Poloxamer 188:food grade GMS 30:70, 60 min
  mean value (n = 4) of % of Compound 1 released: 15.5%
Table 3n: size 4 capsule, 0.5 mg Compound 1, Poloxamer 188:food grade GMS 30:70, 120 min
  mean value (n = 4) of % of Compound 1 released: 26.9%
Table 3n: size 4 capsule, 0.5 mg Compound 1, Poloxamer 188:food grade GMS 30:70, 180 min
  mean value (n = 4) of % of Compound 1 released: 37.9%
Table 3n: size 4 capsule, 0.5 mg Compound 1, Poloxamer 188:food grade GMS 30:70, 240 min
  mean value (n = 4) of % of Compound 1 released: 48.8%
Table 3n: size 4 capsule, 0.5 mg Compound 1, Poloxamer 188:food grade GMS 30:70, 360 min
  mean value (n = 4) of % of Compound 1 released: 68.7%
Table 3n: size 4 capsule, 0.5 mg Compound 1, Poloxamer 188:food grade GMS 30:70, 480 min
  mean value (n = 4) of % of Compound 1 released: 83.4%
Table 3n: size 4 capsule, 0.5 mg Compound 1, Poloxamer 188:food grade GMS 30:70, 600 min
  mean value (n = 4) of % of Compound 1 released: 90.6%
Table 3n: size 4 capsule, 0.5 mg Compound 1, Poloxamer 188:food grade GMS 30:70, 720 min
  mean value (n = 4) of % of Compound 1 released: 94.7%
Table 3n: size 4 capsule, 0.5 mg Compound 1, Poloxamer 188:food grade GMS 30:70, 735 min
  mean value (n = 4) of % of Compound 1 released: 95.7%
Table 3o: size 4 capsule, 0.5 mg Compound 1, Poloxamer 188:food grade GMS 30:70, 30 min
  mean value (n = 4) of % of Compound 1 released: 5.6%
Table 3o: size 4 capsule, 0.5 mg Compound 1, Poloxamer 188:food grade GMS 30:70, 60 min
  mean value (n = 4) of % of Compound 1 released: 13.3%
Table 3o: size 4 capsule, 0.5 mg Compound 1, Poloxamer 188:food grade GMS 30:70, 120 min
  mean value (n = 4) of % of Compound 1 released: 25.5%
Table 3o: size 4 capsule, 0.5 mg Compound 1, Poloxamer 188:food grade GMS 30:70, 180 min
  mean value (n = 4) of % of Compound 1 released: 37.7%
Table 3o: size 4 capsule, 0.5 mg Compound 1, Poloxamer 188:food grade GMS 30:70, 240 min
  mean value (n = 4) of % of Compound 1 released: 49.7%
Table 3o: size 4 capsule, 0.5 mg Compound 1, Poloxamer 188:food grade GMS 30:70, 360 min
  mean value (n = 4) of % of Compound 1 released: 71.2%
Table 3o: size 4 capsule, 0.5 mg Compound 1, Poloxamer 188:food grade GMS 30:70, 480 min
  mean value (n = 4) of % of Compound 1 released: 84.0%
Table 3o: size 4 capsule, 0.5 mg Compound 1, Poloxamer 188:food grade GMS 30:70, 600 min
  mean value (n = 4) of % of Compound 1 released: 89.7%
Table 3o: size 4 capsule, 0.5 mg Compound 1, Poloxamer 188:food grade GMS 30:70, 720 min
  mean value (n = 4) of % of Compound 1 released: 93.1%
Table 3o: size 4 capsule, 0.5 mg Compound 1, Poloxamer 188:food grade GMS 30:70, 735 min
  mean value (n = 4) of % of Compound 1 released: 94.8%
Table 3p: size 4 capsule, 0.5 mg Compound 1, Poloxamer 188:food grade GMS 30:70, 30 min
  mean value (n = 4) of % of Compound 1 released: 7.3%
Table 3p: size 4 capsule, 0.5 mg Compound 1, Poloxamer 188:food grade GMS 30:70, 60 min
  mean value (n = 4) of % of Compound 1 released: 14.3%
Table 3p: size 4 capsule, 0.5 mg Compound 1, Poloxamer 188:food grade GMS 30:70, 120 min
  mean value (n = 4) of % of Compound 1 released: 26.1%
Table 3p: size 4 capsule, 0.5 mg Compound 1, Poloxamer 188:food grade GMS 30:70, 180 min
  mean value (n = 4) of % of Compound 1 released: 38.5%
Table 3p: size 4 capsule, 0.5 mg Compound 1, Poloxamer 188:food grade GMS 30:70, 240 min
  mean value (n = 4) of % of Compound 1 released: 51.1%
Table 3p: size 4 capsule, 0.5 mg Compound 1, Poloxamer 188:food grade GMS 30:70, 360 min
  mean value (n = 4) of % of Compound 1 released: 74.3%
Table 3p: size 4 capsule, 0.5 mg Compound 1, Poloxamer 188:food grade GMS 30:70, 480 min
  mean value (n = 4) of % of Compound 1 released: 87.0%
Table 3p: size 4 capsule, 0.5 mg Compound 1, Poloxamer 188:food grade GMS 30:70, 600 min
  mean value (n = 4) of % of Compound 1 released: 92.3%
Table 3p: size 4 capsule, 0.5 mg Compound 1, Poloxamer 188:food grade GMS 30:70, 720 min
  mean value (n = 4) of % of Compound 1 released: 95.0%
